Source: US20230151021A1, “Compounds and Compositions for Treating Hematologic Malignancies” (priority 2020, published 2023)
Counter-ions that a name gives are not always drawn.

Legend:
Raji cells = experiment: cells; type: cell-based, human; details: 100 nM for 72 h
[1] = test system: 13 cell lines representing a range of hematologic malignancies; experiment: Cell viability in panel of hematologic malignancy derived cell lines; details: 100 nM, 72 hours
Experimental: Cell viability was determined after 72 hours by detecting luminescence. ALL, acute lymphoblastic leukemia; BL, Burkitt's lymphoma; DLBCL, diffuse large B-cell lymphoma; MCL, mantle cell lymphoma; AML, acute myeloid leukemia; MM, multiple myeloma; LCLs, lymphoblastoid cell lines.
(§2) 5000 cells as indicated were cultured in 96-well plate with 100 μl of media. On the next day, Brusatol or associated analogs were added once to the cells without media change. After treatment, the cells were incubated with 100 μl buffer for 10 minutes at room temperature following the instructions of CellTiter-Glo kit (Promega, Madison, Wis.). Luminescence was detected using a multi-mode reader Cytation 5 (BioTek, Winooski, Vt.). Brusatol or its analogs are dissolved in 100% ethanol and diluted in 1×PBS for treatment. Two independent experiments done in duplicates were performed.

[2] = plasma, 1 h
[3] = plasma, 1 h; remark: listed apart in the source
PDX223 = experiment: IC50 assays of biotin-conjugated compounds in multiple PDXs and lymphoma cells; details: Homo sapiens
Experimental: as §2

Toledo = experiment: as above; details: Homo sapiens
Experimental: as §2

PDX129 = experiment: as above; details: Homo sapiens
Experimental: as §2

Pfeiffer = experiment: as above; details: Homo sapiens
Experimental: as §2

Jeko-1 = experiment: as above; details: Homo sapiens
Experimental: as §2

PI3Kγ = biological target: T1, PI3Kγ (Homo sapiens, UniProt P48736); experiment: Biotin pull-down / competitive binding assay in SU-DHL-4 cell lysates; details: SU-DHL-4 lysate, without parent Brusatol
T1 construct: endogenous in cells; host or cells: SU-DHL-4 cells (lysate)
T1 sequence (P48736 whole entry): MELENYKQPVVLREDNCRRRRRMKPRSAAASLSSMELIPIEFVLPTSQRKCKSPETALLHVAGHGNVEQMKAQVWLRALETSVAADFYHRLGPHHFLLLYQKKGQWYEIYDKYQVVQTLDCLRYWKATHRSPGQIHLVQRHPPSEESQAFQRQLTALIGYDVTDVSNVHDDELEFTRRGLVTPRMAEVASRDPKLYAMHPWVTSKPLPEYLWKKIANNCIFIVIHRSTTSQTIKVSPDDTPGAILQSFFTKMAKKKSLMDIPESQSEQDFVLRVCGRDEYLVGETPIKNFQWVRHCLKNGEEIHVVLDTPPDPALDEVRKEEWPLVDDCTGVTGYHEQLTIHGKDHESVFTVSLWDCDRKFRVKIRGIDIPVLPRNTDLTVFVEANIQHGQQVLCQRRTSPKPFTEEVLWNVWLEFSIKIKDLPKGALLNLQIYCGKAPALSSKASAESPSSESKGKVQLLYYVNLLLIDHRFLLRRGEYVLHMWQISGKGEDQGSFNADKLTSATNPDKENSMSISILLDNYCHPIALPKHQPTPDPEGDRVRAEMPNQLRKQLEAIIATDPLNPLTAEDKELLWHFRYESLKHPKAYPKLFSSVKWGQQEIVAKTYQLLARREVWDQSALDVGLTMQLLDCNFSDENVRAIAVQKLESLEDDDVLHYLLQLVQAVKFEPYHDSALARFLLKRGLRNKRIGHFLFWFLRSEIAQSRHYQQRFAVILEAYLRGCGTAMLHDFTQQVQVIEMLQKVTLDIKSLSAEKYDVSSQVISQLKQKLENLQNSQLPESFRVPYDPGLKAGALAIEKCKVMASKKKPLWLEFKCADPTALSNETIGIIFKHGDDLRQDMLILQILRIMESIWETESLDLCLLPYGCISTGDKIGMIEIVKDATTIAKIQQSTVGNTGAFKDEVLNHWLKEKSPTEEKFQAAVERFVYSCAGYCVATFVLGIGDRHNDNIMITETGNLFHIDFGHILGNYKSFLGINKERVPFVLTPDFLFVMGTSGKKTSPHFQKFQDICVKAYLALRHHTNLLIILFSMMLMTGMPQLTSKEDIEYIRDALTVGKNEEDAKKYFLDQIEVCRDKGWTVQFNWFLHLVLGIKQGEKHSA
Experimental: (§1) 30 μg of purified GST-tagged proteins were pre-cleared with Dynabeads M-280 Streptavidin (Invitrogen, Carlsbad, Calif., USA). The supernatants were collected and incubated with Dynabeads M-280 Streptavidin and 0, 300 μM, or 500 μM of biotin-conjugated Brusatol derivatives (51052) overnight at 4° C. For the competitive binding assays, cell lysates from SU-DHL-4 cells were incubated with the biotin-conjugated Brusatol derivative (51048) alone or together with Brusatol as well as Dynabeads M-280 Streptavidin. The complexes were harvested and washed with PBS. The collected beads were mixed with SDS loading buffer for further analysis.

GST-tagged PI3Kγ = GST-tagged PI3Kγ (Homo sapiens, UniProt P48736); experiment: Pull-down assay with purified GST-tagged protein; type: binding; details: 0, 300 μM, or 500 μM
Sequence of GST-tagged PI3Kγ (P48736 whole entry): as above
Experimental: PIK3CG cDNA (Plasmid #20574) was purchased from Addgene and cloned into a pGEX-6P-1 vector (GE Healthcare, Madison, Wis., USA). This GST-tagged PIK3CG plasmid was transformed into E. coli BL21 (DE3)-competent cells (Life Technologies, Carlsbad, Calif., USA) for in vitro expression according to Molecular Cloning (Third Edition).
as §1

## COC(=O)[C@@]12OC[C@]34C([C@@H](O)[C@@H]1O)[C@@]1(C)CC(=O)C(OC(=O)C5CCCN5C(=O)OC(C)(C)C)=C(C)[C@@H]1C[C@H]3OC(=O)[C@H](OC(=O)C=C(C)C)[C@@H]24 (stereo partly drawn) [Compound 11, 1-(tert-butyl) 2-((1R,2S,3S,3aS,3a1R,4R,6aR,7aR,11aS)-1,2-dihydroxy-3-(methoxycarbonyl)-8,11a-dimethyl-4-((3-methylbut-2-enoyl)oxy)-5,10-dioxo-1,3,3a,4,5,6a,7,7a,10,11,11a,11b-dodecahydro-2H-3,3a1-(epoxymethano)dibenzo[de,g]chromen-9-yl)(2S)-pyrrolidine-1,2-dicarboxylate]
Raji cells
  activity on viability of Raji cells (in words): moderate inhibition

## COC(=O)[C@@]12OC[C@]34C([C@@H](O)[C@@H]1O)[C@@]1(C)CC(=O)C(OC(=O)[C@@H](N)Cc5ccccc5)=C(C)[C@@H]1C[C@H]3OC(=O)[C@H](OC(=O)C=C(C)C)[C@@H]24 (stereo partly drawn) [Compound 14, methyl (1R,2S,3S,3aS,3a1R,4R,6aR,7aR,11aS)-9-((L-phenylalanyl)oxy)-1,2-dihydroxy-8,11a-dimethyl-4-((3-methylbut-2-enoyl)oxy)-5,10-dioxo-1,4,5,6a,7,7a,10,11,11a,11b-decahydro-2H-3,3a1-(epoxymethano)dibenzo[de,g]chromene-3(3aH)-carboxylate]
[1]
  inhibition of cell viability (in words): significantly inhibit cell viability

## COC(=O)[C@@]12OC[C@]34C([C@@H](O)[C@@H]1O)[C@@]1(C)CC(=O)C(OC(=O)CNC(=O)CN)=C(C)[C@@H]1C[C@H]3OC(=O)[C@H](OC(=O)C=C(C)C)[C@@H]24 (stereo partly drawn) [Compound 20, methyl (1R,2S,3S,3aS,3a1R,4R,6aR,7aR,11aS)-9-((glycylglycyl)oxy)-1,2-dihydroxy-8,11a-dimethyl-4-((3-methylbut-2-enoyl)oxy)-5,10-dioxo-1,4,5,6a,7,7a,10,11,11a,11b-decahydro-2H-3,3a1-(epoxymethano)dibenzo[de,g]chromene-3(3aH)-carboxylate]
Raji cells
  activity on viability of Raji cells (in words): potent activities comparable to or higher than the parent brusatol

## COC(=O)[C@@]12OC[C@]34C([C@@H](O)[C@@H]1O)[C@@]1(C)CC(=O)C(OC(=O)C[C@H](C)NC(=O)C[C@H](C)N)=C(C)[C@@H]1C[C@H]3OC(=O)[C@H](OC(=O)C=C(C)C)[C@@H]24 (stereo partly drawn) [Compound 21, methyl (1R,2S,3S,3aS,3a1R,4R,6aR,7aR,11aS)-9-(((S)-3-((S)-3-aminobutanamido)butanoyl)oxy)-1,2-dihydroxy-8,11a-dimethyl-4-((3-methylbut-2-enoyl)oxy)-5,10-dioxo-1,4,5,6a,7,7a,10,11,11a,11b-decahydro-2H-3,3a1-(epoxymethano)dibenzo[de,g]chromene-3(3aH)-carboxylate]
Raji cells
  activity on viability of Raji cells (in words): potent activities comparable to or higher than the parent brusatol

## COC(=O)[C@@]12OC[C@]34C([C@@H](O)[C@@H]1O)[C@@]1(C)CC(=O)C(OC(=O)[C@H](C)NC(=O)[C@H](C)N)=C(C)[C@@H]1C[C@H]3OC(=O)[C@H](OC(=O)C=C(C)C)[C@@H]24 (stereo partly drawn) [Compound 22, methyl (1R,2S,3S,3aS,3a1R,4R,6aR,7aR,11aS)-9-((L-alanyl-L-alanyl)oxy)-1,2-dihydroxy-8,11a-dimethyl-4-((3-methylbut-2-enoyl)oxy)-5,10-dioxo-1,4,5,6a,7,7a,10,11,11a,11b-decahydro-2H-3,3a1-(epoxymethano)dibenzo[de,g]chromene-3(3aH)-carboxylate]
Raji cells
  activity on viability of Raji cells (in words): not active

## COC(=O)[C@@]12OC[C@]34C([C@@H](O)[C@@H]1O)[C@@]1(C)CC(=O)C(OC(=O)CNC(=O)CNC(=O)CN)=C(C)[C@@H]1C[C@H]3OC(=O)[C@H](OC(=O)C=C(C)C)[C@@H]24 (stereo partly drawn) [Compound 23, methyl (1R,2S,3S,3aS,3a1R,4R,6aR,7aR,11aS)-9-((glycylglycylglycyl)oxy)-1,2-dihydroxy-8,11a-dimethyl-4-((3-methylbut-2-enoyl)oxy)-5,10-dioxo-1,4,5,6a,7,7a,10,11,11a,11b-decahydro-2H-3,3a1-(epoxymethano)dibenzo[de,g]chromene-3(3aH)-carboxylate]
Raji cells
  activity on viability of Raji cells (in words): potent activities comparable to or higher than the parent brusatol

## COC(=O)[C@@]12OC[C@]34C([C@@H](O)[C@@H]1O)[C@@]1(C)CC(=O)C(OC(=O)C[C@H](C)N)=C(C)[C@@H]1C[C@H]3OC(=O)[C@H](OC(=O)C=C(C)C)[C@@H]24 (stereo partly drawn) [Compound 26-TFA]
[2]
  Plasma stability remaining % at 60 min, human: 44%
[3]
  Plasma stability remaining % at 60 min, rat: 39%

## COC(=O)[C@@]12OC[C@]34C([C@@H](O)[C@@H]1O)[C@@]1(C)CC(=O)C(OC(=O)[C@@H]5CCCN5)=C(C)[C@@H]1C[C@H]3OC(=O)[C@H](OC(=O)C=C(C)C)[C@@H]24 (stereo partly drawn) [Compound 31, (1R,2S,3S,3aS,3a1R,4R,6aR,7aR,11aS)-1,2-dihydroxy-3-(methoxycarbonyl)-8,11a-dimethyl-4-((3-methylbut-2-enoyl)oxy)-5,10-dioxo-1,3,3a,4,5,6a,7,7a,10,11,11a,11b-dodecahydro-2H-3,3a1-(epoxymethano)dibenzo[de,g]chromen-9-yl L-prolinate]
[1]
  inhibition of cell viability (in words): significantly inhibit cell viability
Raji cells
  activity on viability of Raji cells (in words): potent activities comparable to or higher than the parent brusatol

## CC(C)=CC(=O)O[C@H]1C(=O)O[C@@H]2C[C@H]3C(C)=C(O)C(=O)C[C@]3(C)C3[C@@H](O)[C@H](O)[C@@]4(C(=O)NCCCCCCNC(=O)CCC[C@@H]5SC[C@@H]6NC(=O)N[C@@H]65)OC[C@]32[C@@H]14 (stereo partly drawn) [Compound 51046, (1R,2S,3S,3aS,3a1R,4R,6aR,7aR,11aS)-1,2,9-trihydroxy-8,11a-dimethyl-5,10-dioxo-3-((6-(4-((3aS,4S,6aR)-2-oxohexahydro-1H-thieno[3,4-d]imidazol-4-yl)butanamido)hexyl)carbamoyl)-1,3,3a,4,5,6a,7,7a,10,11,11a,11b-dodecahydro-2H-3,3a1-(epoxymethano)dibenzo[de,g]chromen-4-yl 3-methylbut-2-enoate]
PDX223
  IC50: 8.97 µM
Toledo
  IC50: 494 nM
PDX129
  IC50: 1640 nM
Pfeiffer
  IC50: 8.91 µM
Jeko-1
  IC50: 3010 nM

## COC(=O)[C@@]12OC[C@]34C([C@@H](O)[C@@H]1O)[C@@]1(C)CC(=O)C(OC(=O)CCCC[C@@H]5SC[C@@H]6NC(=O)N[C@@H]65)=C(C)[C@@H]1C[C@H]3OC(=O)[C@H](OC(=O)C=C(C)C)[C@@H]24 (stereo partly drawn) [Compound 51048, methyl (1R,2S,3S,3aS,3a1R,4R,6aR,7aR,11aS)-1,2-dihydroxy-8,11a-dimethyl-4-((3-methylbut-2-enoyl)oxy)-5,10-dioxo-9-((5-((3aS,4S,6aR)-2-oxohexahydro-1H-thieno[3,4-d]imidazol-4-yl)pentanoyl)oxy)-1,4,5,6a,7,7a,10,11,11a,11b-decahydro-2H-3,3a1-(epoxymethano)dibenzo[de,g]chromene-3(3aH)-carboxylate]
PDX223
  IC50: 3.56 µM
Toledo
  IC50: > 10000 nM
PDX129
  IC50: 1730 nM
Pfeiffer
  IC50: 3.17 µM
Jeko-1
  IC50: 1190 nM
PI3Kγ
  binding activity with PI3Kγ (in words): relatively strong

## COC(=O)[C@@]12OC[C@]34C([C@@H](O)[C@@H]1O)[C@@]1(C)CC(=O)C(OC(=O)CCCCCNC(=O)CCCC[C@@H]5SC[C@@H]6NC(=O)N[C@@H]65)=C(C)[C@@H]1C[C@H]3OC(=O)[C@H](OC(=O)C=C(C)C)[C@@H]24 (stereo partly drawn) [Compound 51052, methyl (1R,2S,3S,3aS,3a1R,4R,6aR,7aR,11aS)-1,2-dihydroxy-8,11a-dimethyl-4-((3-methylbut-2-enoyl)oxy)-5,10-dioxo-9-((6-(5-((3aS,4S,6aR)-2-oxohexahydro-1H-thieno[3,4-d]imidazol-4-yl)pentanamido)hexanoyl)oxy)-1,4,5,6a,7,7a,10,11,11a,11b-decahydro-2H-3,3a1-(epoxymethano)dibenzo[de,g]chromene-3(3aH)-carboxylate]
PDX223
  IC50: 0.108 µM
Toledo
  IC50: 388 nM
PDX129
  IC50: 76 nM
Pfeiffer
  IC50: 0.079 µM
Jeko-1
  IC50: 28 nM
GST-tagged PI3Kγ
  association with GST-tagged PI3Kγ in vitro (in words): formed a complex
